Measurements: patent US20040204577A1, “Novel peptide-forming enzyme gene” (Ajinomoto Co., Inc., priority 2003, published 2004)
Marks after values point to notes of the source that are not given here. Where a SMILES comes first, the peptide text is derived from it. Where no end group is shown, it is not given here. [ ]: non-standard residue; d: D form. Tle = CC(C)(C)[C@H](N)C(=O)O; NMeA = CN[C@@H](C)C(=O)O

Columns and labels:
[1] = test system: peptide-forming enzyme (Mono S fraction enzyme); assay: Enzyme substrate specificity (1)-(10), (13), (14): peptide production; format: biochemical, Empedobacter brevis; design: key to Produced peptide (oligopeptide): +: those for which production was confirmed but which were unable to be quantified due to the absence of a standard; a trace amount; key to Formed peptide: +: those peptides for which production was confirmed but which were unable to be quantified due to the absence of a standard; a trace amount
Experimental: Ester specificity was examined in the case of using L-amino acid ester for the carboxy component. 2 μl of the same enzyme fraction as used in Example 5 was added to 100 μl of 100 mM borate buffer (pH 9.0) containing the carboxy components indicated in Table 4 at 100 mM, 200 mM L-glutamine and 10 mM EDTA, and allowed to react at 25° C. for 2 hours. HCl represents hydrochloride in Table 4.
Peptide production was examined in the case of using L-alanine methyl ester for the carboxy component and using various L-amino acids for the amine component.
Peptide production was examined in the case of using various types of L-amino acid methyl esters for the carboxy component and using L-glutamine for the amine component. 2 μl of the same enzyme fraction as used in Example 5 was added to 100 μl of 100 mM borate buffer (pH 9.0) containing the L-amino acid methyl ester hydrochloride salts (AA-OMe.HCl) shown in Table 6 at 100 mM, 150 mM L-glutamine and 10 mM EDTA, and allowed to react at 25° C. for 3 hours. […] Furthermore, Tween-80 was added to the reaction system to a final concentration of 0.1% in the case of using L-Trp-OMe and L-Tyr-OMe.
Peptide production was examined in the case of using various L-amino acid methyl esters for the carboxy component and various L-amino acids for the amine component. 2 μl of the same enzyme fraction as used in Example 5 was added to 100 μl of 100 mM borate buffer (pH 9.0) containing the L-amino acid methyl ester hydrochloride salts (AA-OMe.HCl) shown in Table 7 at 100 mM, the L-amino acids shown in Table 7 at 150 mM and 10 mM EDTA, and allowed to react at 25° C. for 3 hours. The “tr” indicates a trace amount. Furthermore, Tween-80 was added to the reaction system to a final concentration of 0.1% in the case of using L-Trp-OMe.
Peptide production was examined in the case of using the L or D forms of various amino acid methyl esters for the carboxy component, and the L or D forms of various amino acids for the amine component. 2 μl of the same enzyme fraction as used in Example 5 was added to 100 μl of 100 mM borate buffer (pH 9.0) containing the various amino acid methyl ester hydrochloride salts (AA-OMe HCl) shown in Table 8 at 100 mM, the various amino acids shown in Table 8 at 150 mM and 10 mM EDTA, and allowed to react at 25° C. for 3 hours. The “tr” indicates a trace amount.
Peptide production was examined using various L-amino acid amides for the carboxy component, and various L-amino acids for the amine component. 2 μl of the same enzyme fraction as that used in Example 5 was added to 100 μl of 100 mM borate buffer (pH 9.0) containing the L-amino acid amide hydrochloride salt (M-NH2.HCl) shown in Table 9 at 100 mM, the L-amino acids shown in Table 9 at 150 mM and 10 mM EDTA, and allowed to react at 25° C. for 3 hours.
Peptide production was examined in the case of using various L-alanine methyl esters for the carboxy component and C-protected L-amino acids for the amine component. 2 μl of the same enzyme fraction as used in Example 5 was added to 100 μl of 100 mM borate buffer (pH 9.0) containing the L-alanine methyl ester hydrochloride hydrochloride salt (Ala-OMe.HCl) shown in Table 10 at 100 mM, the L-amino acid amide hydrochloride salts shown in Table 10 at 150 mM and 10 mM EDTA, and allowed to react at 25° C. for 3 hours.
Peptide production was examined in the case of using various amino acid methyl esters for the carboxy component and methylamine for the amine component. 2 μl of the same enzyme fraction as used in Example 5 was added to 100 μl of 100 mM borate buffer (pH 9.0) containing the amino acid methyl ester hydrochloride salt (M-OMe.HCl) shown in Table 11 at 100 mM, the methylamine shown in Table 11 at 150 mM and 10 mM EDTA, and allowed to react at 25° C. for 3 hours.
Peptide production was examined in the case of using […] for the carboxy component or β-amino acid for the amine component.

[2] = test system: enzyme derived from Sphingobacterium sp. strain FERM BP-8124 (SP-Sepharose HP fraction enzyme); assay: Enzyme substrate specificity (11), (12): peptide production; format: biochemical; settings: carboxy component 100 mM, 0.33 units enzyme, pH 9.0, 25° C., 1.5 hours; for Produced peptide (Table 15-2): L-Gln 150 mM
From the text: Substrate specificity was examined for enzyme derived from Sphingobacterium sp. strain FERM BP-8124 (Depositary institution: the independent administrative corporation, National Institute of Advanced Industrial Science and Technology, International Patent Organism Depositary, Address of depositary institution: Chuo Dai-6, 1-1 Higashi 1-Chome, Tsukuba-shi, Ibaraki-ken, Japan, International deposit date: […] The amounts of various peptides formed in this reaction are shown in Table 15. The “+” mark indicates those peptides for which production was confirmed but which were unable to be quantified due to the absence of a standard, while “tr” indicates a trace amount. Furthermore, Tween-80 was added to the reaction system to a final concentration of 0.1% in the case of using L-Tyr-OMe. In addition, hydrochloride salts were used for all carboxy components. Substrate specificity with respect to oligopeptide production was examined for enzyme derived from Sphingobacterium sp. strain FERM BP-8124 (Depositary institution: the independent administrative corporation, National Institute of Advanced Industrial Science and Technology, International Patent Organism Depositary, Address of depositary institution: Chuo Dai-6, 1-1 Higashi 1-Chome, Tsukuba-shi, Ibaraki-ken, Japan, International deposit date: […] The amounts of each oligopeptide formed in this reaction are shown in Table 16. Furthermore, hydrochloride salts were used for all the carboxy components.

[3] = L-amino acid methyl ester hydrochloride 100 mM, L-amino acid 150 mM, pH 9.0, 25° C., 3 hours
[4] = L or D amino acid methyl ester hydrochloride 100 mM, L or D amino acid 150 mM, pH 9.0, 25° C., 3 hours
[5] = 100 mM L-alanine methyl ester hydrochloride, L-amino acid 150 mM, pH 9.0, 25° C., 3 hours
[6] = L-amino acid ester 100 mM, peptide (amine component) 150 mM, pH 9.0, 25° C., 3 hours
[7] = L-amino acid methyl ester hydrochloride 100 mM, 150 mM L-glutamine, pH 9.0, 25° C., 3 hours
[8] = carboxy component 100 mM, amine component 150 mM, 0.1 unit enzyme, 25° C., reaction time 3 hr
[9] = β-amino acid ester or β-amino acid, carboxy component 100 mM, amine component 150 mM, pH 9.0, 25° C., 3 hours

Molecule: NCCCC[C@H](NC(=O)CN)C(=O)O [Gly-L-Lys] (H-Gly-Lys-OH)
- Formed peptide [1, 3]: 9.8 mM
- Produced peptide (Table 15-3) ([2]; amine component 150 mM): 48.2 mM

Molecule: C[C@@H](N)C(=O)N[C@H](CO)C(=O)O [D-Ala-D-Ser] (H-[dA]-[dS]-OH)
- Formed peptide [1, 4]: 0.2 mM
- Produced peptide (Table 15-1) ([2]; amine component 150 mM): 5.5 mM

Molecule: C[C@H](N)C(=O)N[C@@H](C)C(=O)O [L-Ala-L-Ala] (H-Ala-Ala-OH)
- Formed peptide [1, 5]: 25.4 mM
- Produced peptide [1, 6]: 28.7 mM
- Produced peptide (Table 15-1) ([2]; amine component 150 mM): 13.1 mM
- Produced peptide (Table 16, oligopeptide) ([2]; amine component 150 mM): 25.6 mM

Molecule: CC[C@H](C)[C@H](N)C(=O)N[C@@H](CO)C(=O)O [L-Ile-L-Ser] (H-Ile-Ser-OH)
- Formed peptide [1, 3]: 17.2 mM
- Produced peptide (Table 15-3) ([2]; amine component 150 mM): 17.3 mM

Molecule: NC(=O)CC[C@H](NC(=O)[C@@H](N)CO)C(=O)O [L-Ser-L-Gln] (H-Ser-Gln-OH)
- Formed peptide [1, 7]: 24.0 mM
- Produced peptide (Table 15-2) [2]: 12.9 mM

Molecule: NC(=O)CC[C@H](NC(=O)[C@@H](N)CCC(N)=O)C(=O)O [L-Gln-L-Gln] (H-Gln-Gln-OH)
- Formed peptide [1, 7]: 0.3 mM
- Produced peptide (Table 15-2) [2]: 0.1 mM

Molecule: C[C@@H](N)C(=O)N[C@@H](CO)C(=O)O [D-Ala-L-Ser] (H-[dA]-Ser-OH)
- Formed peptide [1, 4]: 20.3 mM
- Produced peptide (Table 15-1) ([2]; amine component 150 mM): 24.1 mM

Molecule: NC(=O)CC[C@H](NC(=O)[C@@H](N)Cc1ccccc1)C(=O)O [L-Phe-L-Gln]
- Formed peptide ([1]; L-amino acid amide hydrochloride as carboxy component 100 mM, L-amino acid 150 mM, pH 9.0, 25° C., 3 hours): 0.2 mM
- Formed peptide [1, 7]: 0.9 mM
- Produced peptide (Table 15-2) [2]: 0.8 mM

Molecule: NCC(=O)N[C@@H](CCC(N)=O)C(=O)O [Gly-L-Gln] (H-Gly-Gln-OH)
- Formed peptide [1, 7]: 54.7 mM
- Produced peptide (Table 15-2) [2]: 61.1 mM

Molecule: NC(N)=NCCC[C@H](N)C(=O)N[C@@H](CO)C(=O)O [L-Arg-L-Ser] (H-Arg-Ser-OH)
- Formed peptide [1, 3]: 3.6 mM
- Produced peptide (Table 15-3) ([2]; amine component 150 mM): 2.2 mM

Molecule: CSCC[C@H](NC(=O)[C@@H](N)CO)C(=O)O [L-Ser-L-Met] (H-Ser-Met-OH)
- Formed peptide [1, 3]: 12.5 mM
- Produced peptide (Table 15-3) ([2]; amine component 150 mM): 7.6 mM

Molecule: C[C@H](N)C(=O)N1CCC[C@H]1C(=O)O [L-Ala-L-Pro] (H-Ala-Pro-OH)
- Formed peptide [1, 5]: tr
- Produced peptide (Table 15-1) ([2]; amine component 150 mM): 1.5 mM

Molecule: C[C@H](N)C(=O)N[C@@H](CC(=O)O)C(=O)O [L-Ala-L-Asp] (H-Ala-Asp-OH)
- Formed peptide [1, 5]: 2.1 mM
- Produced peptide (Table 15-1) ([2]; amine component 150 mM): 2.3 mM

Molecule: C[C@H](N)C(=O)N[C@H](CO)C(=O)O [L-Ala-D-Ser] (H-Ala-[dS]-OH)
- Formed peptide [1, 4]: 5.4 mM
- Produced peptide (Table 15-1) ([2]; amine component 150 mM): 3.3 mM

Molecule: NCC(=O)N[C@@H](CO)C(=O)O [Gly-L-Ser] (H-Gly-Ser-OH)
- Formed peptide [1, 3]: 44.2 mM
- Produced peptide (Table 15-3) ([2]; amine component 150 mM): 53.8 mM

Molecule: CNC(=O)[C@@H](N)[C@@H](C)O [L-Thr-methylamine]
- Formed peptide ([1]; amino acid methyl ester hydrochloride 100 mM, methylamine 150 mM, pH 9.0, 25° C., 3 hours): 0.2 mM
- Produced peptide (Table 15-4) ([2]; amides and methylamine, amine component 150 mM): 0.3 mM

Molecule: NC(=O)CC[C@H](NC(=O)[C@@H](N)Cc1ccc(O)cc1)C(=O)O [L-Tyr-L-Gln] (H-Tyr-Gln-OH)
- Formed peptide [1, 7]: 3.4 mM
- Produced peptide (Table 15-2) [2]: 0.6 mM

Molecule: L-Ala-L-Ala-L-Ala
- Produced peptide [1, 6]: 57.5 mM
- Produced peptide (Table 16, oligopeptide) ([2]; amine component 150 mM): 41.1 mM

Molecule: CSCC[C@H](N)C(=O)N[C@@H](CO)C(=O)O [L-Met-L-Ser] (H-Met-Ser-OH)
- Produced peptide (Table 15-3) ([2]; amine component 150 mM): 25.3 mM

Molecule: N[C@H](CO)C(=O)N[C@@H](CO)C(=O)O [D-Ser-L-Ser] (H-[dS]-Ser-OH)
- Formed peptide [1, 4]: 3.3 mM

Molecule: CN[C@@H](C)C(=O)N[C@@H](CCC(N)=O)C(=O)O [H-N-Me-Ala-H-Gln-OH] (H-[NMeA]-Gln-OH)
- Produced peptide [1, 8]: 0.5 mM

Molecule: L-Ala-Gly-Gly-L-Phe-L-Met
- Produced peptide (oligopeptide) ([1]; amount of enzyme 0.2 unit, pH 9.0, 25° C., 3 hours): +

Molecule: Gly-Gly-L-Tyr-L-Ala
- Produced peptide [1, 6]: 44.2 mM

Molecule: L-Ala-L-Ala-L-Ala-L-Ala-L-Ala-L-Ala
- Produced peptide ([1]; carboxy component 10 mM, amine component 15 mM (low solubility), pH 9.0, 25° C., 3 hours): 1.4* mM

Molecule: NC(=O)CC[C@H](NC(=O)[C@@H](N)CS)C(=O)O [L-CySH-L-Gln] (H-Cys-Gln-OH)
- Formed peptide [1, 7]: +

Molecule: C[C@H](N)C(=O)N[C@H](C(=O)O)C(C)(C)C [H-Ala-t-Leu-OH] (H-Ala-[Tle]-OH)
- Produced peptide [1, 8]: 0.4 mM

Molecule: NC(=O)CC[C@H](NC(=O)[C@@H](N)Cc1ccc([N+](=O)[O-])cc1)C(=O)O [H-p-NO2-Phe-H-Gln-OH]
- Produced peptide ([1]; carboxy component 40 mM, amine component 40 mM, 0.1 unit enzyme, 25° C., reaction time 3 hr): 1.1 mM

Molecule: C[C@@H](O)[C@H](N)C(=O)N[C@H](CO)C(=O)O [L-Thr-D-Ser] (H-Thr-[dS]-OH)
- Formed peptide [1, 4]: 6.9 mM

Molecule: [dA]-Gly-Phe
- Produced peptide (oligopeptide) ([1]; amount of enzyme 0.1 unit, pH 9.0, 25° C., 3 hours): Tr

Molecule: CC(C)OC(=O)[C@H](C)N.Cl [L-Alanine isopropyl ester.HCl]
- L-Ala-L-Gln formed ([1]; carboxy component 100 mM, 200 mM L-glutamine, pH 9.0, 25° C., 2 hours): 78.9 mM

Molecule: CC(N)C(=O)NC(CC(=O)O)c1ccccc1 (stereo not drawn) [Ala-β-Phe]
- Formed peptide [1, 9]: 1.4 mM

Molecule: CSCC[C@H](NC(=O)[C@@H](N)CCSC)C(=O)O [L-Met-L-Met] (H-Met-Met-OH)
- Produced peptide (Table 15-3) ([2]; amine component 150 mM): 28.4 mM

Molecule: NC(=O)CC[C@H](NC(=O)[C@@H](N)Cc1cnc[nH]1)C(=O)O [L-His-L-Gln] (H-His-Gln-OH)
- Formed peptide [1, 7]: +

Molecule: NCCC(=O)N[C@@H](CCC(N)=O)C(=O)O [β-Ala-L-Gln]
- Formed peptide [1, 9]: 0.6 mM

Molecule: CC(N)C(=O)NCCC(=O)O (stereo not drawn) [Ala-β-Ala]
- Formed peptide [1, 9]: 7.7 mM
